DBAASP
Values after ≈ are worked out from the molar mass of the structure shown.

Legend:
Test in all cases: ≥ marks a high value that may be exact or a test limit, other limits are often not marked, values filed in µg/mL are converted to µM
[1] = test system: Escherichia coli ATCC 25922
[2] = test system: Staphylococcus aureus ATCC 25923
[3] = test system: Staphylococcus aureus ATCC 29213
[4] = test system: Pseudomonas aeruginosa ATCC 27853
Escherichia coli = test system: Escherichia coli

Row | Compound | MIC [1] [µM] | MIC [2] [µM] | other results
1 | CC[C@H](C)[C@H](NC(=O)CNC(=O)[C@H](CCSC)NC(=O)[C@H](CCCCN)NC(=O)[C@H](C)NC(=O)[C@H](CC(C)C)NC(=O)[C@H](CCCCN)NC(=O)[C@H](CCC(=O)O)NC(=O)[C@H](CC(C)C)NC(=O)CNC(=O)[C@H](CCCCN)NC(=O)[C@H](CC(C)C)NC(=O)[C@@H](NC(=O)[C@H](CO)NC(=O)[C@H](CC(C)C)NC(=O)[C@H](C)N)[C@@H](C)CC)C(=O)N[C@@H](C)C(=O)N[C@@H](CC(C)C)C(=O)N[C@H](C(=O)N[C@@H](CC(N)=O)C(=O)N[C@H]1CSSC[C@@H](C(=O)O)NC(=O)[C@H](CCCCN)NC(=O)[C@H](CCCCN)NC(=O)[C@H]([C@@H](C)O)NC(=O)[C@H](C)NC(=O)[C@H](CCCCN)NC1=O)[C@@H](C)O [ALSILKGLEKLAKMGIALTNCKATKKC] | 28 (≈ 79.7 µg/mL) |  | 
2 | CC(C)[C@H](NC(=O)[C@@H]1CCCN1C(=O)[C@@H](N)Cc1ccccc1)C(=O)N[C@H](C(=O)N[C@@H](Cc1c[nH]c2ccccc12)C(=O)N[C@@H](CCCN=C(N)N)C(=O)N[C@@H](Cc1c[nH]c2ccccc12)C(=O)N[C@@H](Cc1c[nH]c2ccccc12)C(=O)N[C@@H](CCCN=C(N)N)C(=O)N[C@@H](Cc1c[nH]c2ccccc12)C(=O)N[C@@H](Cc1c[nH]c2ccccc12)C(=O)N[C@@H](CCCN=C(N)N)C(=O)NCC(N)=O)[C@@H](C)O [FPVTWRWWRWWRG] | 11.3 (≈ 21.7 µg/mL) |  | 
3 | CC[C@H](C)[C@H](NC(=O)CNC(=O)[C@H](CCCCN)NC(=O)[C@@H](NC(=O)[C@H](CC(C)C)NC(=O)[C@H](CO)NC(=O)CNC(=O)[C@H](CC(C)C)NC(=O)CNC(=O)[C@H](C)NC(=O)[C@H](CCCCN)NC(=O)[C@H](Cc1ccccc1)NC(=O)[C@@H](NC(=O)[C@H](CCC(=O)O)NC(=O)[C@H](CCCCN)NC(=O)[C@H](CC(C)C)NC(=O)CN)[C@@H](C)CC)C(C)C)C(=O)N[C@@H](C)C(=O)N[C@@H](C)C(=O)N[C@@H](Cc1cnc[nH]1)C(=O)N[C@H](C(=O)N[C@@H](C)C(=O)N[C@@H](CC(N)=O)C(N)=O)C(C)C [GLKEIFKAGLGSLVKGIAAHVAN] | 25 (≈ 57.3 µg/mL) | 200 (≈ 459 µg/mL) | 
4 | CC[C@H](C)[C@H](NC(=O)[C@H](CCCN=C(N)N)NC(=O)[C@H](CCCCN)NC(=O)[C@H](CC(C)C)NC(=O)[C@H](CC(C)C)NC(=O)CN)C(=O)N[C@@H](CCCCN)C(=O)N[C@@H](CC(C)C)C(=O)N[C@@H](CC(C)C)C(=O)N[C@@H](CC(C)C)C(N)=O [GLLKRIKLLL] | 11.1 (≈ 13 µg/mL) | 6 (≈ 6.99 µg/mL) | 
5 | CC[C@H](C)[C@H](NC(=O)[C@H](CCCN=C(N)N)NC(=O)[C@H](CCCCN)NC(=O)[C@H](CC(C)C)NC(=O)[C@H](CC(C)C)NC(=O)CN)C(=O)N[C@@H](CCCCN)C(=O)N[C@@H](CC(N)=O)C(=O)N[C@@H](CC(C)C)C(=O)N[C@@H](CC(C)C)C(N)=O [GLLKRIKNLL] | 18.8 (≈ 22 µg/mL) | 10.3 (≈ 12 µg/mL) | 
6 | CC[C@H](C)[C@H](NC(=O)[C@H](CCCN=C(N)N)NC(=O)[C@H](CCCCN)NC(=O)[C@H](CC(C)C)NC(=O)[C@H](CC(C)C)NC(=O)CN)C(N)=O [GLLKRI] | > 54.4 | > 54.4 | 
7 | CC[C@H](C)[C@H](NC(=O)[C@@H](NC(=O)[C@H](CCCCN)NC(=O)[C@H](CC(C)C)NC(=O)[C@H](CC(C)C)NC(=O)CN)C(C)C)C(=O)N[C@@H](CCCCN)C(=O)N[C@H](C(=O)N[C@@H](CC(C)C)C(=O)N[C@@H](CC(C)C)C(N)=O)[C@@H](C)O [GLLKVIKTLL] | 2.73 (≈ 3 µg/mL) | 2.73 (≈ 3 µg/mL) | 
8 | CC[C@H](C)[C@H](NC(=O)[C@H](C)NC(=O)CNC(=O)[C@H](C)NC(=O)[C@H](CCCCN)NC(=O)[C@H](CO)NC(=O)[C@H](C)NC(=O)[C@H](CCSC)NC(=O)CN)C(=O)N[C@@H](C)C(=O)NCC(=O)N[C@@H](CCCCN)C(=O)N[C@H](C(=O)N[C@@H](C)C(=O)N[C@@H](CCCCN)C(=O)N[C@H](C(=O)N[C@@H](C)C(=O)N[C@@H](Cc1c[nH]c2ccccc12)C(=O)N[C@@H](CCCCN)C(=O)N[C@@H](C)C(=O)N[C@@H](CC(C)C)C(=O)NCC(=O)NCC(=O)N[C@@H](C)C(N)=O)C(C)C)[C@@H](C)CC [GMASKAGAIAGKIAKVAWKALGGA] | 12.5 (≈ 27.9 µg/mL) |  | 
9 | CC[C@H](C)[C@H](NC(=O)[C@H](CC(=O)O)NC(=O)[C@H](CC(C)C)NC(=O)[C@@H](NC(=O)CN)C(C)C)C(=O)N[C@@H](CC(C)C)C(=O)N[C@@H](CCCCN)C(=O)NCC(=O)N[C@@H](C)C(=O)N[C@@H](C)C(=O)N[C@@H](CCCCN)C(=O)N[C@@H](CC(=O)O)C(=O)N[C@@H](CC(C)C)C(=O)N[C@@H](C)C(=O)NCC(=O)N[C@@H](Cc1cnc[nH]1)C(=O)O [GVLDILKGAAKDLAGH] | 10.1 (≈ 15.9 µg/mL) |  | MIC [3]: 40.5 µM (≈ 63.9 µg/mL)
10 | CC(C)C[C@H](NC(=O)[C@H](C)NC(=O)[C@H](CCCCN)NC(=O)[C@H](C)NC(=O)[C@H](C)NC(=O)CNC(=O)[C@H](CCCCN)NC(=O)[C@H](CC(C)C)NC(=O)[C@H](CC(C)C)NC(=O)[C@H](CC(=O)O)NC(=O)[C@H](CCCCN)NC(=O)[C@H](Cc1c[nH]c2ccccc12)NC(=O)CN)C(=O)N[C@H](C(=O)N[C@@H](CCCCN)C(=O)N[C@H](C(=O)N[C@H](C(=O)N[C@@H](Cc1ccccc1)C(N)=O)C(C)C)[C@@H](C)O)C(C)C [GWKDLLKGAAKALVKTVF] | 3 (≈ 5.83 µg/mL) |  | 
11 | CC(=O)N[C@@H](CCCCN)C(=O)N[C@@H](CC(C)C)C(=O)N[C@@H](CC(C)C)C(=O)N[C@@H](CCCCN)C(=O)N1CCC[C@H]1C(=O)N[C@@H](CC(C)C)C(=O)N[C@@H](CCCCN)C(=O)N[C@@H](CCCCN)C(=O)N[C@@H](CC(C)C)C(=O)N[C@@H](CC(C)C)C(=O)N[C@@H](CCCCN)C(=O)N[C@@H](CC(C)C)C(=O)N[C@@H](CC(C)C)C(=O)N[C@@H](CCCCN)C(N)=O [KLLKPLKKLLKLLK] | 20 (≈ 34.3 µg/mL) |  | MIC [3]: 28.3 µM (≈ 48.6 µg/mL)
12 | CC[C@H](C)[C@H](NC(=O)[C@@H]1CCCN1C(=O)[C@H](CCCCN)NC(=O)[C@H](CC(C)C)NC(=O)[C@H](C)NC(=O)[C@@H](NC(=O)[C@@H](NC(=O)[C@H](CC(C)C)NC(=O)[C@@H](NC(=O)[C@H](CCCCN)NC(=O)[C@H](CCCCN)NC(=O)[C@H](C)NC(=O)[C@H](C)NC(=O)[C@H](CO)NC(=O)[C@@H](NC(=O)[C@H](CC(C)C)NC(=O)[C@H](CCCCN)NC(=O)[C@H](CCCCN)NC(=O)[C@H](CC(C)C)NC(=O)[C@H](Cc1ccccc1)NC(=O)[C@H](CCCCN)NC(=O)[C@H](CCCCN)NC(=O)[C@H](Cc1c[nH]c2ccccc12)NC(=O)[C@@H](N)CCCCN)[C@@H](C)O)C(C)C)[C@@H](C)O)[C@@H](C)O)C(=O)N[C@@H](CO)C(=O)N[C@@H](CO)C(=O)O [KWKKFLKKLTSAAKKVLTTALKPISS] |  |  | MIC [4]: 2 µM (≈ 5.83 µg/mL)
13 | CC(C)C[C@H](NC(=O)[C@H](CCCCN)NC(=O)[C@H](CC(C)C)NC(=O)[C@H](CC(C)C)NC(=O)[C@H](CCCCN)NC(=O)[C@H](CCCCN)NC(=O)[C@H](CCC(=O)O)NC(=O)[C@H](CC(C)C)NC(=O)[C@H](CCCCN)NC(=O)[C@H](CC(C)C)NC(=O)[C@H](CC(C)C)NC(=O)[C@H](CCCCN)NC(=O)[C@H](CCCCN)NC(=O)[C@@H](N)CC(C)C)C(=O)N[C@@H](C)C(=O)NCC(=O)O [LKKLLKLEKKLLKLAG] | 5 (≈ 9.18 µg/mL) |  | MIC [3]: > 40 µM
14 | CC(C)C[C@H](NC(=O)[C@H](CCCN=C(N)N)NC(=O)CNC(=O)CNC(=O)[C@@H](N)CCCN=C(N)N)C(=O)N[C@H]1CSSC[C@@H](C(=O)N[C@@H](CCC(=O)O)C(=O)O)NC(=O)[C@H](C(C)C)NC(=O)[C@@H]2CSSC[C@H](NC(=O)[C@H](Cc3ccc(O)cc3)NC1=O)C(=O)N[C@@H](CCCN=C(N)N)C(=O)N[C@@H](CCCN=C(N)N)C(=O)N[C@@H](CCCN=C(N)N)C(=O)N[C@@H](Cc1ccccc1)C(=O)N2 [RGGRLCYCRRRFCVCE] |  |  | MIC (Escherichia coli): 0.303 µM (≈ 0.599 µg/mL)
15 | CC(C)C[C@H](NC(=O)[C@H](Cc1ccccc1)NC(=O)[C@@H]1CCCN1C(=O)[C@H](C)NC(=O)[C@H](C)NC(=O)[C@H](C)NC(=O)[C@@H]1CCCN1C(=O)[C@H](Cc1ccccc1)NC(=O)[C@H](CCCN=C(N)N)NC(=O)[C@H](CCCN=C(N)N)NC(=O)[C@@H](N)C(C)C)C(=O)N[C@@H](CCCN=C(N)N)C(=O)N[C@@H](CCCN=C(N)N)C(N)=O [VRRFPAAAPFLRR] | > 128 |  | 
16 | CC(C)C[C@H](NC(=O)[C@H](Cc1ccccc1)NC(=O)[C@@H]1CCCN1C(=O)[C@H](Cc1ccc(O)cc1)NC(=O)[C@H](Cc1c[nH]c2ccccc12)NC(=O)[C@H](Cc1ccc(O)cc1)NC(=O)[C@@H]1CCCN1C(=O)[C@H](Cc1ccccc1)NC(=O)[C@H](CCCN=C(N)N)NC(=O)[C@H](CCCN=C(N)N)NC(=O)[C@@H](N)C(C)C)C(=O)N[C@@H](CCCN=C(N)N)C(=O)N[C@@H](CCCN=C(N)N)C(N)=O [VRRFPYWYPFLRR] | 16 (≈ 29.7 µg/mL) |  | 
17 | C[C@H](NC(=O)[C@H](Cc1c[nH]c2ccccc12)NC(=O)[C@H](CCCN=C(N)N)NC(=O)[C@H](CCCN=C(N)N)NC(=O)[C@H](C)NC(=O)[C@H](CCCCN)NC(=O)[C@@H](N)Cc1ccc(O)cc1)C(=O)N[C@@H](Cc1c[nH]c2ccccc12)C(=O)N[C@@H](CCCN=C(N)N)C(=O)N[C@@H](Cc1c[nH]c2ccccc12)C(=O)N[C@@H](CCCCN)C(=O)O [YKARRWAWRWK] | 12.4 (≈ 20 µg/mL) | 12.4 (≈ 20 µg/mL) | MIC [4]: 31.1 µM (≈ 50 µg/mL)
18 | C[C@H](NC(=O)[C@H](Cc1c[nH]c2ccccc12)NC(=O)[C@H](CCCN=C(N)N)NC(=O)[C@H](Cc1c[nH]c2ccccc12)NC(=O)[C@H](C)NC(=O)[C@H](CCCN=C(N)N)NC(=O)[C@@H](N)Cc1ccc(O)cc1)C(=O)N[C@@H](Cc1c[nH]c2ccccc12)C(=O)N[C@@H](CCCN=C(N)N)C(=O)N[C@@H](Cc1c[nH]c2ccccc12)C(=O)N[C@@H](CCCN=C(N)N)C(N)=O [YRAWRWAWRWR] | 5.91 (≈ 9.99 µg/mL) | 1.48 (≈ 2.5 µg/mL) | MIC [4]: 11.8 µM (≈ 20 µg/mL)
19 | NC(=O)[C@H](Cc1c[nH]c2ccccc12)NC(=O)[C@H](CCCN=C(N)N)NC(=O)[C@H](Cc1c[nH]c2ccccc12)NC(=O)[C@H](CCCN=C(N)N)NC(=O)[C@H](Cc1c[nH]c2ccccc12)NC(=O)[C@@H](N)Cc1ccc(O)cc1 [YWRWRW] | 19 (≈ 20 µg/mL) | 9.5 (≈ 9.99 µg/mL) | MIC [4]: 47.5 µM (≈ 50 µg/mL)
